Patent publication US20220160617A1, “COMPOSITIONS AND METHODS FOR IMPROVING SKIN HEALTH AND FOR THE TREATMENT AND PREVENTION OF DISEASES, DISORDERS AND CONDITIONS ASSOCIATED WITH PATHOGENIC MICROBES” (DermBiont, Inc., priority 2019, published 2022)
≈ marks a conversion by molar mass, not a printed value. Like-named read-outs stand apart in the source and are kept apart here. Where a SMILES comes first, the peptide text is derived from it. Bridges are numbered along the chain shown (N, C = ends). [ ]: non-standard residue; d: D form. The star is where a group is joined. Ileψ(thiazoline)Cys = CC[C@H](C)[C@H](N)C1=N[C@H](C(=O)*)CS1; dOrn = NCCC[C@@H](N)C(=O)O

Tests used:
[1] = test system: Janthinobacterium lividum DB00121; assay: Antibiotic MIC test; format: cell-based
Method: (§1) The antibiotic resistance profile and MICs tests were performed using Janthinobacterium lividum grown from cultures purified and grown in vegitone LB broth.

[2] = test system: Janthinobacterium lividum DB02378; assay: Antibiotic MIC test; format: cell-based
Method: as §1

[3] = test system: Janthinobacterium lividum DB00118; assay: Antibiotic MIC test; format: cell-based
Method: as §1

[4] = test system: Janthinobacterium lividum DB02473; assay: Antibiotic MIC test; format: cell-based
Method: as §1

E. Coli ATCC25922 [5] = assay: Antibiotic MIC test; format: cell-based
[6] = test system: Janthinobacterium lividum strains; assay: Internal antibiotic resistance test (BD BBL Sensi-Disc zone of inhibition); format: cell-based; conditions: all 5 strains; disc content per antibiotic
Method: One Janthinobacterium lividum colony of 3-day old grown in 50% BHI agar was mixed well in 1 ml of 1×PBS buffer, diluted 10× and 100×, respectively. 200 μl of diluted Janthinobacterium lividum cells were evenly plated onto R2A/BHI agar plates in triplicate in 150 mm petri dishes. Antibiotic discs (BD BBL Sensi-Disc antimicrobial susceptibility test discs) were dispensed using a Disc dispenser (BD BBL Sensi-Disc Designer Dispenser System, 12-Place). Plates were incubated for 2-3 days at room temperature and imaged at the end of incubation.
The sensitivity of Janthinobacterium lividum to antibiotics is reflected by a clear zone of inhibition of Janthinobacterium lividum cells surrounding the antibiotic discs. The zone of inhibition was measured using ImageJ and was transformed into cm for analysis.

[7] = test system: Janthinobacterium lividum strains; assay: Antibiotic MIC tests, sensitivity summary; format: cell-based
Method: as §1

[8] = test system: fungal or bacterial pathogens; format: cell-based
[9] = test system: Janthinobacterium lividum (DBI001); assay: Biolog Phenotype MicroArray: components enhancing growth of Janthinobacterium in media; format: cell-based
E. Coli ATCC25922 [10] = conditions: cited from earlier work
[11] = Janthinobacterium lividum, DB00121
[12] = components for enhancing function of human-derived Janthinobacterium lividum
[13] = Janthinobacterium lividum, DB02378

Neomycin
MIC ([1]; strain DB00121): 1 µg/mL
MIC ([2]; strain DB02378): 2 µg/mL
MIC ([3]; strain DB00118): 2 µg/mL
MIC ([4]; strain DB02473): 2 µg/mL
MIC (E. Coli ATCC25922 [5]): 2 µg/mL

O=C(O)c1cn(C2CC2)c2cc(N3CCNCC3)c(F)cc2c1=O [Ciprofloxacin]
sensitivity of Janthinobacterium lividum to antibiotic disc [6]: sensitive

CC[C@H](C)[C@H](N)C1=N[C@H](C(=O)N[C@@H](CC(C)C)C(=O)N[C@H](CCC(=O)O)C(=O)N[C@H](C(=O)N[C@H]2CCCCNC(=O)[C@H](CC(N)=O)NC(=O)[C@@H](CC(=O)O)NC(=O)[C@H](Cc3cnc[nH]3)NC(=O)[C@@H](Cc3ccccc3)NC(=O)[C@H]([C@@H](C)CC)NC(=O)[C@@H](CCCN)NC2=O)[C@@H](C)CC)CS1 [Bacitracin] ({Ileψ(thiazoline)Cys}-L[dE]IK[dOrn]I[dF]H[dD]N; lactam 4-C)
sensitivity of Janthinobacterium lividum strains to antibiotic [7]: resistant

Amoxicillin clavulanate
sensitivity of Janthinobacterium lividum strains to antibiotic [7]: less sensitive
MIC ([1]; strain DB00121): 0.5 µg/mL
MIC ([2]; strain DB02378): 1 µg/mL
MIC ([3]; strain DB00118): 1 µg/mL
MIC ([4]; strain DB02473): 1 µg/mL
MIC (E. Coli ATCC25922 [5]): 8 µg/mL

C[C@H]1COc2c(N3CCN(C)CC3)c(F)cc3c(=O)c(C(=O)O)cn1c23 [Levofloxacin]
MIC [1, 11]: 0.125 µg/mL (≈ 0.346 µM)

Tween 40
Concentration Range of Efficacy [8, 12]: 2 to 20 mM
improvement of growth of human-derived Janthinobacterium lividum [9]: improve the growth

CO/N=C(\C(=O)N[C@@H]1C(=O)N2C(C(=O)O)=C(CSc3nc(=O)c(=O)[nH]n3C)CS[C@H]12)c1csc(N)n1 [Ceftriaxone]
MIC, CLSI QC ranges (E. Coli ATCC25922 [10]): 0.03 to 0.12 µg/mL

CO/N=C(\C(=O)N[C@@H]1C(=O)N2C(C(=O)[O-])=C(C[N+]3(C)CCCC3)CS[C@H]12)c1csc(N)n1 [Cefepime]
MIC [1, 11]: 0.125 µg/mL (≈ 0.26 µM)
MIC [2, 13]: 0.125 µg/mL (≈ 0.26 µM)
MIC ([4]; Janthinobacterium lividum, DB02473): 0.125 µg/mL (≈ 0.26 µM)
MIC, CLSI QC ranges (E. Coli ATCC25922 [10]): 0.016 to 0.12 µg/mL

O=C(N[C@H](CO)[C@H](O)c1ccc([N+](=O)[O-])cc1)C(Cl)Cl [Chloramphenicol]
sensitivity of Janthinobacterium lividum strains to antibiotic [7]: less sensitive
MIC, CLSI QC ranges (E. Coli ATCC25922 [10]): 2 to 8 µg/mL
sensitivity of Janthinobacterium lividum to antibiotic disc [6]: sensitive

C[C@H]1[C@H](NC(=O)/C(=N\OC(C)(C)C(=O)O)c2csc(N)n2)C(=O)N1S(=O)(=O)O [Aztreonam]
sensitivity of Janthinobacterium lividum strains to antibiotic [7]: less sensitive
MIC, CLSI QC ranges (E. Coli ATCC25922 [10]): 0.06 to 0.25 µg/mL

CC(=O)OCC1=C(C(=O)O)N2C(=O)[C@@H](NC(=O)Cc3cccs3)[C@H]2SC1 [cephalothin]
sensitivity of Janthinobacterium lividum to antibiotic disc [6]: sensitive

penicillin
sensitivity of Janthinobacterium lividum to antibiotic disc [6]: sensitive

OC[C@@H](O)[C@H](O)[C@H](O)[C@@H](O)CO [Dulcitol]
Concentration Range of Efficacy [8, 12]: 2 to 20 mM

NCC[C@H](O)C(=O)N[C@@H]1C[C@H](N)[C@@H](O[C@H]2O[C@H](CN)[C@@H](O)[C@H](O)[C@H]2O)[C@H](O)[C@H]1O[C@H]1O[C@H](CO)[C@@H](O)[C@H](N)[C@H]1O [Amikacin]
MIC, CLSI QC ranges (E. Coli ATCC25922 [10]): 0.5 to 4 µg/mL

OC[C@H]1O[C@@H](O[C@H]2[C@H](O)[C@@H](O)[C@H](O)O[C@@H]2CO)[C@H](O)[C@@H](O)[C@@H]1O [D-Cellobiose]
Concentration Range of Efficacy [8, 12]: 2 to 20 mM

CO[C@@H]1O[C@H](CO)[C@@H](O)[C@H](O)[C@H]1O [β-Methyl-D-Galactoside]
Concentration Range of Efficacy [8, 12]: 1 to 5 mM

CCC[C@@H]1C[C@@H](C(=O)N[C@@H]([C@H]2O[C@H](SC)[C@H](O)[C@@H](O)[C@H]2O)[C@H](C)Cl)N(C)C1 [Clindamycin]
MIC (E. Coli ATCC25922 [5]; Escherichia coli, read-out: MIC): > 64 µg/mL

O=NO [Nitrite]
Concentration Range of Efficacy [8]: 0.1 to 1 mM

CO[C@@H]1O[C@H](C(=O)O)[C@@H](O)[C@H](O)[C@H]1O [β-Methyl-D-Glucuronic Acid]
Concentration Range of Efficacy [8, 12]: 1 to 5 mM

[H]/N=C(/N)N[C@H]1[C@H](O)[C@@H](O)[C@H](O[C@@H]2O[C@@H](C)[C@](O)(C=O)[C@H]2O[C@@H]2O[C@@H](CO)[C@H](O)[C@@H](O)[C@@H]2NC)[C@@H](N/C(N)=N\[H])[C@@H]1O [streptomycin]
sensitivity of Janthinobacterium lividum to antibiotic disc [6]: sensitive

OC[C@@H](O)[C@@H](O)[C@H](O)[C@H](O)CO [D-Mannitol]
improvement of growth of human-derived Janthinobacterium lividum [9]: improve the growth

CC1(C)S[C@@H]2[C@H](NC(=O)[C@H](N)c3ccccc3)C(=O)N2[C@H]1C(=O)O [ampicillin]
sensitivity of Janthinobacterium lividum to antibiotic disc [6]: sensitive

OC[C@H]1O[C@@H]2O[C@H]3[C@H](O)[C@@H](O)[C@@H](O[C@H]4[C@H](O)[C@@H](O)[C@@H](O[C@H]5[C@H](O)[C@@H](O)[C@@H](O[C@H]6[C@H](O)[C@@H](O)[C@@H](O[C@H]7[C@H](O)[C@@H](O)[C@@H](O[C@H]1[C@H](O)[C@H]2O)O[C@@H]7CO)O[C@@H]6CO)O[C@@H]5CO)O[C@@H]4CO)O[C@@H]3CO [α-Cyclodextrin]
Concentration Range of Efficacy [8, 12]: 1 to 5 mM

C[C@@H](O)[C@H]1C(=O)N2C(C(=O)O)=C(S[C@@H]3CN[C@H](C(=O)N(C)C)C3)[C@H](C)[C@H]12 [Meropenem]
sensitivity of Janthinobacterium lividum strains to antibiotic [7]: less sensitive
MIC, CLSI QC ranges (E. Coli ATCC25922 [10]): 0.008 to 0.06 µg/mL

CC[C@H]1OC(=O)[C@H](C)[C@@H](O[C@H]2C[C@@](C)(OC)[C@@H](O)[C@H](C)O2)[C@H](C)[C@@H](O[C@@H]2O[C@H](C)C[C@H](N(C)C)[C@H]2O)[C@](C)(O)C[C@@H](C)C(=O)[C@H](C)[C@@H](O)[C@]1(C)O [Erythromycin]
sensitivity of Janthinobacterium lividum to antibiotic disc [6]: sensitive

Laminarin
Concentration Range of Efficacy [8, 12]: 1 to 5 mM

O=C[C@@H](O)[C@H](O[C@@H]1O[C@H](CO)[C@H](O)[C@H](O)[C@H]1O)[C@H](O)CO [3-0-β-D-Galactopyranosyl-D Arabinose]
Concentration Range of Efficacy [8, 12]: 1 to 5 mM

Nc1ncnc2c1ncn2C1CC(O)C(CO)O1 (centres unmarked) [2-Deoxy Adenosine]
Concentration Range of Efficacy [8, 12]: 2 to 20 mM

OC[C@H](O)C(O)[C@@H](O)CO [L-Arabitol]
Concentration Range of Efficacy [8, 12]: 1 to 5 mM

O=P(O)(O)O[C@H]1O[C@H](CO)[C@@H](O)[C@H](O)[C@H]1O [D-Glucose-1-Phosphate]
Concentration Range of Efficacy [8, 12]: 2 to 20 mM

CN[C@H](CC(C)C)C(=O)N[C@H]1C(=O)N[C@@H](CC(N)=O)C(=O)N[C@H]2C(=O)N[C@H]3C(=O)N[C@H](C(=O)N[C@H](C(=O)O)c4cc(O)cc(O)c4-c4cc3ccc4O)[C@H](O)c3ccc(c(Cl)c3)Oc3cc2cc(c3O[C@@H]2O[C@H](CO)[C@@H](O)[C@H](O)[C@H]2O[C@H]2C[C@](C)(N)[C@H](O)[C@H](C)O2)Oc2ccc(cc2Cl)[C@H]1O [vancomycin]
sensitivity of Janthinobacterium lividum to antibiotic disc [6]: sensitive

OC[C@H]1O[C@@H]2O[C@H]3[C@H](O)[C@@H](O)[C@@H](O[C@H]4[C@H](O)[C@@H](O)[C@@H](O[C@H]5[C@H](O)[C@@H](O)[C@@H](O[C@H]6[C@H](O)[C@@H](O)[C@@H](O[C@H]7[C@H](O)[C@@H](O)[C@@H](O[C@H]8[C@H](O)[C@@H](O)[C@@H](O[C@H]1[C@H](O)[C@H]2O)O[C@@H]8CO)O[C@@H]7CO)O[C@@H]6CO)O[C@@H]5CO)O[C@@H]4CO)O[C@@H]3CO [β-Cyclodextrin]
Concentration Range of Efficacy [8, 12]: 1 to 5 mM

CN(C)c1ccc(O)c2c1C[C@H]1C[C@H]3[C@H](N(C)C)C(O)=C(C(N)=O)C(=O)[C@@]3(O)C(O)=C1C2=O [Minocycline]
MIC [2, 13]: 0.125 µg/mL (≈ 0.273 µM)
MIC ([3]; Janthinobacterium lividum, DB00118): 0.125 µg/mL (≈ 0.273 µM)

OC[C@H]1O[C@H](OC[C@H]2O[C@H](OC[C@H]3O[C@H](O[C@]4(CO)O[C@H](CO)[C@@H](O)[C@@H]4O)[C@H](O)[C@@H](O)[C@@H]3O)[C@H](O)[C@@H](O)[C@H]2O)[C@H](O)[C@@H](O)[C@H]1O [Stachyose]
Concentration Range of Efficacy [8, 12]: 1 to 5 mM

OC[C@H]1O[C@H](OC[C@H]2OC(O)(CO)[C@@H](O)[C@@H]2O)[C@H](O)[C@@H](O)[C@@H]1O (some centres unmarked) [Palatinose]
Concentration Range of Efficacy [8, 12]: 1 to 5 mM

O=P(O)(O)OCC(O)CO (racemic) [D,L-α-Glycerol Phosphate]
Concentration Range of Efficacy [8, 12]: 2 to 20 mM

Glycogen
Concentration Range of Efficacy [8, 12]: 1 to 5 mM

CC(O)CO (centres unmarked) [1,2-Propanediol]
Concentration Range of Efficacy [8, 12]: 2 to 20 mM
